Assay: recombinant UMI read abundance after kanamycin selection (control-corrected) (log10(CPM+1)); higher = more efficient recombination; extreme values may be limits of the assay; sequences stand for … in AGTGCAGAGAAAATCGGCCAGTTTTCTCTGCCTGCAGTCCGCATGCCGTGGGACCCCTTGGGTTCTAACCTGTTGCCTAGATTTATGCAGCGGACTGCCTTTCTCCCAAAGTGATAAACCGG…AGGTTGGTTTCACT; site = the 11-nt donor
In short: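 Counts of recombinant UMIs were reported as log10(CPM+1). Before that, they were converted to CPM, averaged over replicates and scaled using control-derived factors. They came from PCR across the donor–target junction after Escherichia coli carrying the pair library and target plasmid was plated on IPTG (0.07 mM) plus kanamycin, or unselected, in two replicates each.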
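Note: IS621 bridge recombinase in Escherichia coli cells against a fixed T5 target plasmid.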

| Sequence | recombinant UMI read abundance (log10) |
| --- | --- |
| CCAGCGCCATGGACCGGTTTTCCCGGTAATCCGTATTTGTG (site CTAGCGCCTCA) | 0 |
| CCAGCTGCATGGACCGGTTTTCCCGGTAATCCGTATTTGAT (site CCAGATGCTAT) | 0.00428 |
| CCAGCTGCATGGACCGGTTTTCCCGGTAATCCGTATTTGAT (site CCAGCTGCTAT) | 1.7 |
| CCAGCTGCATGGACCGGTTTTCCCGGTAATCCGTATTTGAT (site CCAGGTGCTAT) | 0.00694 |
| CCAGCTGCATGGACCGGTTTTCCCGGTAATCCGTATTTGAT (site CCAGTTGCTAT) | 0.00911 |
| CCAGGGCCATGGACCGGTTTTCCCGGTAATCCGTATTTGTG (site CCAGGGCCTCA) | 0.00753 |
| CCAGGTCCATGGACCGGTTTTCCCGGTAATCCGTATTTGAT (site CCAGGTACTAT) | 0 |
| CCAGGTCCATGGACCGGTTTTCCCGGTAATCCGTATTTGAT (site CCAGGTCCTAT) | 0.341 |
| CCAGGTCCATGGACCGGTTTTCCCGGTAATCCGTATTTGAT (site CCAGGTGCTAT) | 0 |
| CCAGGTCCATGGACCGGTTTTCCCGGTAATCCGTATTTGAT (site CCAGGTTCTAT) | 0 |
| CCAGGTGCATGGACCGGTTTTCCCGGTAATCCGTATTTGAA (site CCAGGTGCTAT) | 0.00736 |
| CCAGGTGCATGGACCGGTTTTCCCGGTAATCCGTATTTGAA (site CCAGGTGCTCT) | 0.218 |
| CCAGGTGCATGGACCGGTTTTCCCGGTAATCCGTATTTGAA (site CCAGGTGCTGT) | 0 |
| CCAGGTGCATGGACCGGTTTTCCCGGTAATCCGTATTTGAA (site CCAGGTGCTTT) | 1.73 |
| CCAGGTGCATGGACCGGTTTTCCCGGTAATCCGTATTTGAC (site CCAGGTGCTAT) | 0.0299 |
| CCAGGTGCATGGACCGGTTTTCCCGGTAATCCGTATTTGAC (site CCAGGTGCTCT) | 0.00976 |
| CCAGGTGCATGGACCGGTTTTCCCGGTAATCCGTATTTGAC (site CCAGGTGCTGT) | 0.637 |
| CCAGGTGCATGGACCGGTTTTCCCGGTAATCCGTATTTGAC (site CCAGGTGCTTT) | 0.00791 |
| CCAGGTGCATGGACCGGTTTTCCCGGTAATCCGTATTTGGT (site CCAGGTGCTAA) | 0.0181 |
| CCAGGTGCATGGACCGGTTTTCCCGGTAATCCGTATTTGGT (site CCAGGTGCTAC) | 0.188 |
| CCAGGTGCATGGACCGGTTTTCCCGGTAATCCGTATTTGGT (site CCAGGTGCTAG) | 0 |
| CCAGGTGCATGGACCGGTTTTCCCGGTAATCCGTATTTGGT (site CCAGGTGCTAT) | 0.541 |
| CCAGTAGCATGGACCGGTTTTCCCGGTAATCCGTATTTGAC (site CCAGTAGCTGT) | 2.06 |
| CCAGTAGCATGGACCGGTTTTCCCGGTAATCCGTATTTGAC (site CTAGTATCTGT) | 0 |
| CCAGTATCATGGACCGGTTTTCCCGGTAATCCGTATTTGCA (site ACAGTATCTTG) | 1.07 |

| Sequence | recombinant UMI read abundance (log10) |
| --- | --- |
| CCAGTATCATGGACCGGTTTTCCCGGTAATCCGTATTTGCA (site CCAGTATCTTG) | 2.21 |
| CCAGTATCATGGACCGGTTTTCCCGGTAATCCGTATTTGCA (site GCAGTATCTTG) | 0 |
| CCAGTATCATGGACCGGTTTTCCCGGTAATCCGTATTTGCA (site TCAGTATCTTG) | 0 |
| CCAGTGACATGGACCGGTTTTCCCGGTAATCCGTATTTGGT (site CCAGTGACTAC) | 0 |
| CCATATGCATGGACCGGTTTTCCCGGTAATCCGTATTTGGC (site CCATATGCTGC) | 0.0195 |
| CCATCGCCATGGACCGGTTTTCCCGGTAATCCGTATTTGGA (site CCATCGCCTTC) | 0.0195 |
| CCATGGTCATGGACCGGTTTTCCCGGTAATCCGTATTTGTT (site CCATGGTCTAA) | 1.06 |
| CCATTATCATGGACCGGTTTTCCCGGTAATCCGTATTTGCA (site ACAGTATCTTG) | 0 |
| CCATTATCATGGACCGGTTTTCCCGGTAATCCGTATTTGCA (site CCATTATCTTG) | 0.785 |
| CCATTCCCATGGACCGGTTTTCCCGGTAATCCGTATTTGCT (site CAATTCCCTAG) | 0 |
| CCATTCCCATGGACCGGTTTTCCCGGTAATCCGTATTTGCT (site CCATTCCCTAG) | 0 |
| CCATTCCCATGGACCGGTTTTCCCGGTAATCCGTATTTGCT (site CGATTCCCTAG) | 0 |
| CCATTCCCATGGACCGGTTTTCCCGGTAATCCGTATTTGCT (site CTATTCCCTAG) | 0 |
| CCATTCTCATGGACCGGTTTTCCCGGTAATCCGTATTTGTA (site CCATTCTCTTA) | 0.451 |
| CCCAACACATGGACCGGTTTTCCCGGTAATCCGTATTTGTA (site CCCAACACTTA) | 1.35 |
| CCCAACACATGGACCGGTTTTCCCGGTAATCCGTATTTGTA (site CCCCACACTTA) | 0.0125 |
| CCCAACACATGGACCGGTTTTCCCGGTAATCCGTATTTGTA (site CCCGACACTTA) | 0.0265 |
| CCCAACACATGGACCGGTTTTCCCGGTAATCCGTATTTGTA (site CCCTACACTTA) | 0.00893 |
| CCCAACCCATGGACCGGTTTTCCCGGTAATCCGTATTTGAT (site CCCAACCCTAT) | 0.00723 |
| CCCAAGTCATGGACCGGTTTTCCCGGTAATCCGTATTTGGG (site CCCAAGTCTCC) | 2.38 |
| CCCAATTCATGGACCGGTTTTCCCGGTAATCCGTATTTGCC (site ACCAATTCTGG) | 0 |
| CCCAATTCATGGACCGGTTTTCCCGGTAATCCGTATTTGCC (site CCCAATTCTGG) | 0.628 |
| CCCAATTCATGGACCGGTTTTCCCGGTAATCCGTATTTGCC (site GCCAATTCTGG) | 0 |
| CCCAATTCATGGACCGGTTTTCCCGGTAATCCGTATTTGCC (site TCCAATTCTGG) | 0 |
| CCCACCGCATGGACCGGTTTTCCCGGTAATCCGTATTTGCG (site ACCACCGCTCG) | 0.0127 |

| Sequence | recombinant UMI read abundance (log10) |
| --- | --- |
| CCCACCGCATGGACCGGTTTTCCCGGTAATCCGTATTTGCG (site CCCACCGCTCG) | 0.00466 |
| CCCACCGCATGGACCGGTTTTCCCGGTAATCCGTATTTGCG (site GCCACCGCTCG) | 0.0563 |
| CCCACCGCATGGACCGGTTTTCCCGGTAATCCGTATTTGCG (site TCCACCGCTCG) | 0.00493 |
| CCCACGCCATGGACCGGTTTTCCCGGTAATCCGTATTTGTA (site ACCACGCCTTA) | 0.00406 |
| CCCACGCCATGGACCGGTTTTCCCGGTAATCCGTATTTGTA (site CCCACGCCTTA) | 0.00594 |
| CCCACGCCATGGACCGGTTTTCCCGGTAATCCGTATTTGTA (site GCCACGCCTTA) | 0.00718 |
| CCCACGCCATGGACCGGTTTTCCCGGTAATCCGTATTTGTA (site TCCACGCCTTA) | 0.0141 |
| CCCAGATCATGGACCGGTTTTCCCGGTAATCCGTATTTGTC (site CCCAAATCTGA) | 0 |
| CCCAGATCATGGACCGGTTTTCCCGGTAATCCGTATTTGTC (site CCCACATCTGA) | 0 |
| CCCAGATCATGGACCGGTTTTCCCGGTAATCCGTATTTGTC (site CCCAGATCTGA) | 0 |
| CCCAGATCATGGACCGGTTTTCCCGGTAATCCGTATTTGTC (site CCCATATCTGA) | 0 |
| CCCATAACATGGACCGGTTTTCCCGGTAATCCGTATTTGTC (site CCCATAACTGA) | 0 |
| CCCATAACATGGACCGGTTTTCCCGGTAATCCGTATTTGTC (site CCCATACCTGA) | 0 |
| CCCATAACATGGACCGGTTTTCCCGGTAATCCGTATTTGTC (site CCCATAGCTGA) | 0 |
| CCCATAACATGGACCGGTTTTCCCGGTAATCCGTATTTGTC (site CCCATATCTGA) | 0 |
| CCCATACCATGGACCGGTTTTCCCGGTAATCCGTATTTGTC (site CCCATAACTGA) | 0 |
| CCCATACCATGGACCGGTTTTCCCGGTAATCCGTATTTGTC (site CCCATACCTGA) | 0 |
| CCCATACCATGGACCGGTTTTCCCGGTAATCCGTATTTGTC (site CCCATAGCTGA) | 0 |
| CCCATACCATGGACCGGTTTTCCCGGTAATCCGTATTTGTC (site CCCATATCTGA) | 0 |
| CCCATATCATGGACCGGTTTTCCCGGTAATCCGTATTTGAC (site CCCATATCTGA) | 0 |
| CCCATATCATGGACCGGTTTTCCCGGTAATCCGTATTTGAC (site CCCATATCTGC) | 0 |
| CCCATATCATGGACCGGTTTTCCCGGTAATCCGTATTTGAC (site CCCATATCTGG) | 0 |
| CCCATATCATGGACCGGTTTTCCCGGTAATCCGTATTTGAC (site CCCATATCTGT) | 0.446 |
| CCCATCTCATGGACCGGTTTTCCCGGTAATCCGTATTTGTA (site CCCATCTCTTA) | 1.97 |
| CCCCACACATGGACCGGTTTTCCCGGTAATCCGTATTTGTC (site CCCCACACTAA) | 0.316 |

Reference: the supplement of paper PMC11208160
